Legend:
Test in all cases: relative viability (nuclei count vs DMSO), 5 days (fraction); higher = more cells survive
AZD5582 + AZD7762 = compound: C[C@@H](C(=O)N[C@@H](C1CCCCC1)C(=O)N2CCC[C@H]2C(=O)N[C@@H]3[C@@H](CC4=CC=CC=C34)OCC#CC#CCO[C@@H]5CC6=CC=CC=C6[C@@H]5NC(=O)[C@@H]7CCCN7C(=O)[C@H](C8CCCCC8)NC(=O)[C@H](C)NC)NC [AZD5582] + NC(=O)Nc1cc(-c2cccc(F)c2)sc1C(=O)N[C@H]1CCCNC1 [AZD7762] (partner 0.2 µM)
Summary of the method: (§1)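 Dosing by pin tool came one day after lung cancer cell lines were seeded in 1536-well plates, using either one drug or a fixed anchor-drug dose plus five library-drug doses (not always all listed) in √10 steps. After 5 days, nuclei were counted on 4× images. Relative viability is treated-well nuclei count divided by vehicle-well nuclei count, and values are medians of duplicate plates.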

AZD5582 + Pictilisib = compound: C[C@@H](C(=O)N[C@@H](C1CCCCC1)C(=O)N2CCC[C@H]2C(=O)N[C@@H]3[C@@H](CC4=CC=CC=C34)OCC#CC#CCO[C@@H]5CC6=CC=CC=C6[C@@H]5NC(=O)[C@@H]7CCCN7C(=O)[C@H](C8CCCCC8)NC(=O)[C@H](C)NC)NC [AZD5582] + CS(=O)(=O)N1CCN(Cc2cc3nc(-c4cccc5[nH]ncc45)nc(N4CCOCC4)c3s2)CC1 [Pictilisib] (partner 1 µM)
Summary of the method: as §1

[1] = compound: Cn1nnc2c(C(N)=O)ncn2c1=O [Temozolomide] + N=C(N)NC(=N)NCCc1ccccc1 [Phenformin] (partner 250 µM)
Summary of the method: as §1

AZD5582 + Trametinib = compound: C[C@@H](C(=O)N[C@@H](C1CCCCC1)C(=O)N2CCC[C@H]2C(=O)N[C@@H]3[C@@H](CC4=CC=CC=C34)OCC#CC#CCO[C@@H]5CC6=CC=CC=C6[C@@H]5NC(=O)[C@@H]7CCCN7C(=O)[C@H](C8CCCCC8)NC(=O)[C@H](C)NC)NC [AZD5582] + CC(=O)Nc1cccc(-n2c(=O)n(C3CC3)c(=O)c3c(Nc4ccc(I)cc4F)n(C)c(=O)c(C)c32)c1 [Trametinib] (partner 0.02 µM)
Summary of the method: as §1

| Cell Line | relative viability (AZD5582 + AZD7762; first compound 0.001581 µM) | relative viability (AZD5582 + AZD7762; first compound 0.005 µM) | relative viability (AZD5582 + AZD7762; first compound 0.01581 µM) | relative viability (AZD5582 + AZD7762; first compound 0.05 µM) | relative viability (AZD5582 + Pictilisib; first compound 0.001581 µM) | relative viability (AZD5582 + Pictilisib; first compound 0.005 µM) | relative viability (AZD5582 + Pictilisib; first compound 0.01581 µM) | relative viability (AZD5582 + Pictilisib; first compound 0.05 µM) | relative viability ([1]; first compound 0.2 µM) | relative viability ([1]; first compound 0.6325 µM) | relative viability ([1]; first compound 2 µM) | relative viability ([1]; first compound 6.325 µM) | relative viability ([1]; first compound 20 µM) | relative viability (AZD5582 + Trametinib; first compound 0.001581 µM) | relative viability (AZD5582 + Trametinib; first compound 0.005 µM) | relative viability (AZD5582 + Trametinib; first compound 0.01581 µM) | relative viability (AZD5582 + Trametinib; first compound 0.05 µM) |
| --- | --- | --- | --- | --- | --- | --- | --- | --- | --- | --- | --- | --- | --- | --- | --- | --- | --- |
| NCI-H1975 | 0.709 | 0.932 | 0.667 | 0.902 | 0.3 | 0.348 | 0.315 | 0.409 | 0.444 | 0.423 | 0.438 | 0.417 | 0.423 | 0.444 | 0.434 | 0.448 | 0.322 |
| NCI-H647 | 0.324 | 0.394 | 0.336 | 0.447 | 0.388 | 0.449 | – | 0.458 | 0.624 | 0.626 | 0.593 | 0.463 | 0.208 | 0.417 | 0.477 | 0.443 | 0.47 |
| NCI-H838 | 0.87 | 0.903 | 0.81 | 1.01 | 0.39 | 0.467 | 0.362 | 0.59 | 0.63 | 0.616 | 0.676 | 0.568 | 0.635 | 0.493 | 0.582 | 0.405 | 0.498 |
| LCLC-103H | 0.745 | 0.725 | 0.613 | 0.41 | 0.649 | 0.699 | 0.454 | 0.559 | 0.36 | 0.365 | 0.359 | 0.31 | 0.322 | 0.702 | 0.813 | 0.643 | 0.828 |
| NCI-H2087 | 1.21 | 1.27 | 1.17 | 1.13 | 0.871 | 1.02 | 0.905 | 0.986 | 0.49 | 0.474 | 0.506 | 0.458 | 0.482 | 0.184 | 0.244 | 0.163 | 0.22 |
| NCI-H322M | 0.53 | 0.598 | 0.504 | 0.6 | 0.554 | 0.632 | 0.715 | 0.625 | – | 0.821 | 0.811 | 0.769 | 0.574 | 0.561 | 0.62 | 0.496 | 0.68 |
| PC-14 | 0.255 | 0.247 | 0.294 | 0.183 | 0.501 | 0.549 | 0.598 | 0.295 | 0.498 | 0.686 | 0.519 | 0.31 | 0.105 | 0.404 | 0.44 | 0.722 | 0.397 |
| NCI-H460 | 0.516 | 0.628 | 0.562 | 0.639 | 0.277 | 0.329 | 0.366 | 0.337 | 0.52 | 0.54 | 0.492 | 0.488 | 0.478 | 0.118 | 0.243 | 0.144 | 0.221 |
| H3255 | 0.805 | 0.779 | 0.842 | 0.773 | 0.472 | 0.454 | 0.392 | 0.39 | – | 0.385 | 0.344 | 0.403 | 0.185 | 0.58 | 0.667 | 0.557 | 0.524 |
| NCI-H1355 | 0.47 | 0.667 | 0.643 | 0.556 | 0.372 | 0.379 | 0.289 | 0.361 | 0.499 | 0.517 | 0.522 | 0.44 | 0.452 | 0.396 | 0.444 | 0.452 | 0.409 |
| NCI-H2170 | 0.813 | 0.884 | 0.88 | 1.04 | 0.3 | 0.352 | 0.28 | 0.319 | – | 0.422 | 0.448 | 0.349 | 0.327 | 0.904 | 0.825 | 0.861 | 1.03 |
| EPLC-272H | 0.0994 | – | 0.204 | 0.0859 | 0.115 | 0.0891 | 0.216 | 0.0826 | 0.156 | 0.305 | 0.332 | 0.461 | 0.28 | 0.15 | – | 0.292 | 0.0966 |
| NCI-H596 | 1.07 | – | 1.11 | 0.38 | 0.31 | 0.348 | 0.413 | 0.191 | 0.797 | 0.827 | 0.658 | 0.659 | 0.787 | 0.738 | – | 0.8 | 0.588 |
| 201T | 0.479 | 0.579 | 0.556 | 0.447 | 0.697 | 0.733 | 0.703 | 0.808 | 0.491 | 0.449 | 0.497 | 0.376 | 0.456 | 0.786 | 0.842 | 0.719 | 0.847 |
| LU99A | 0.317 | 0.349 | 0.313 | 0.337 | 0.315 | 0.323 | 0.291 | 0.37 | 0.983 | 0.8 | 0.865 | 0.68 | 0.803 | 0.575 | 0.68 | 0.534 | 0.617 |
| CAL-12T | 0.423 | 0.468 | 0.485 | 0.405 | 0.305 | 0.314 | 0.265 | 0.351 | 0.657 | 0.612 | 0.529 | 0.574 | 0.558 | 0.31 | 0.34 | 0.291 | 0.216 |
| NCI-H2126 | 0.981 | 0.933 | 0.896 | 0.747 | 0.505 | 0.556 | 0.436 | 0.533 | 0.503 | 0.591 | 0.574 | 0.513 | 0.519 | 0.581 | 0.594 | 0.594 | 0.614 |
| BEN | 0.74 | 0.701 | 0.866 | 0.619 | 0.54 | 0.561 | 0.654 | 0.534 | 0.286 | 0.288 | 0.229 | 0.27 | 0.26 | 0.893 | 1.13 | 1.05 | 1.2 |

— the supplement of paper PMC10307832
